{"source": "patent US10654815B2", "about": "“Urea compound and preparation method and application thereof” (SHENZHEN CHIPSCREEN BIOSCIENCES CO., LTD., priority 2016, dated 2020)", "key": {"PD-1/PD-L1 binding": {"molecular_target": "T1, PD-1/PD-L1 binding (UniProt Q9NZQ7)", "T1 construct": "fused on or other part: human IgG Fc (hFc tag) fused to PD-L1", "assay": "In-vitro PD-1/PD-L1 binding inhibition (HTRF)", "parameters": "species or system human", "conditions": "His-PD-1 100 nM, PD-L1-Fc 2 nM final, read-out: IC50 on inhibiting PD-1/PD-L1 binding in-vitro", "excerpt": "Main Principle of the Experiment (HTRF)\nHomogeneous Time-Resolved Fluorescence (HTRF): The PD-1 protein carried an His tag and the Fc fusion protein of its ligand PD-L1 carried an hFc tag. An anti-hFc antibody labeled with a chelating marker of Eu element and an anti-His antibody labeled with XL66 were respectively combined with two corresponding tags. After laser excitation (320 nm), energy was transferred from the donor Eu to the acceptor XL665, so that the XL665 emitted light (665 nm). […] The basic detection principle was as follows (see FIG. 3):\nThe His-tagged human recombinant PD-1 protein (Cat#: 80448-R08H-100) and human recombinant PD-L1-Fc fusion protein (Cat#: 90251-CO2H-100) were purchased from Sino Biological Inc., and the anti-hFc-Eu3^+ and anti-His-XL665 antibody were purchased from Cisbio. Other related reagents such as dilution buffer, detection buffer were all purchased from Cisbio. The fluorescence detection instrument Tecan (Spark 10M) was purchased from Tecan, Switzerland.\nThe experimental process was carried out in accordance with the procedure required by the instruction manual for the test reagent […]. The process was as follows:\n(1) Preparation of the experiment: The test compound was diluted to a different concentration gradient with a dilution buffer (the maximum final concentration was 10 μM in 20 μL final reaction system), the His-PD-1 protein was diluted to 800 nM (the final concentration was 100 nM in 20 μL final reaction system), and the PD-L1-Fc fusion protein was diluted to 16 nM (the final concentration was 2 nM). The anti-His-XL665 antibody and the anti-hFc-Eu^3+ antibody were diluted 20-fold and 100-fold, respectively, with the test diluent according to the reagent requirements.\n(2) 5 μL of the test compound, 2.5 μL of PD-L1 protein and 2.5 μL of PD-1 protein solution were evenly mixed, and then reacted at room temperature for 15 min. Subsequently, 5 μL of anti-His-XL665 antibody and 5 μL of anti-hFc-Eu^3+ antibody were added to the system, and the incubation was continued for 3 hours followed by detection.\n(3) At the same time of detection of the reaction, control groups were set, including a 0-inhibited positive control to which no test compound was added, and a negative control to which no PD-1 protein was added. All tests were run in duplicate.\n(4) The fluorescence signal of each well was detected by a fluorescence detector Tecan (Spark 10M) with an excitation wavelength of 320 nm and detected emission wavelengths of 620 nm and 665 nm, respectively. The intensity of PD-1/PD-L1 binding to each other referred to the fluorescence signal ratio Em665/Em620.\n(5) Formula for calculating the binding inhibition rate of test compounds: inhibition rate (%)=[1−(ratio of fluorescence signals of detection holes−negative control)/(ratio of fluorescence signals of 0-inhibited positive control−negative control)×100%. After calculating the binding inhibition rate of the test compounds with different concentration gradients, the 50% inhibitory concentration (IC50) was further calculated."}, "[1]": {"system": "T cell leukemia cell line (Jurkat cell)", "assay": "Cytotoxic activity, MTS assay in T cell line", "type": "cell-based", "conditions": "Homo sapiens, Jurkat cells, compound 2 μM, 72 h, relative to solvent control (DMSO)", "excerpt": "In order to rule out the biological function changes of T cell caused by cytotoxic effects of the compounds themselves, MTS assay was used as a routine cytotoxicity detection method. The basic principle was that the dehydrogenase in the living cell mitochondria was capable of metabolizing and reducing the new type yellow […] compound MTS to formazan. The amount of formazan product measured at 490 nm absorbance (OD) was directly proportional to the number of viable cells in the culture, and thus whether the test compound itself had the ability of inhibiting cell growth or killing cells can be judged basing on the OD value.\nIn this experiment, the T cell leukemia cell line (Jurkat cell) was evaluated for its cell growth activity according to the MTS assay.\nThe MTS was carried out in a 96-well plate according to a routine experimental procedure.\nCell lines were inoculated into a 96-well plate at an appropriate concentration (approximately 20,000 cells/well), test compounds (final concentration 2 μM) were added, and at the same time solvent control (DMSO) and negative control wells were set, and the well was set in triplicate. The cells were further cultured for 72 h followed by detection.\nAfter the culture, 20 μL of the a pre-prepared mixture of MTS and PMS (mixed in a ratio of 20:1) was added directly to the culture well, and incubated in a 37° C. incubator for 2 h, and then detection was conducted using a microplate reader (490 nm).\nThe background value of the negative control was subtracted, and the relative cell activity (%) of the test compound on cell growth=(OD value of the test well/OD value of the solvent control well)×100%."}, "[2]": {"system": "PD-1/PD-L1 interaction in human peripheral mononuclear cells (PBMC)", "assay": "PD-1 signal inhibition at cellular level: IL-2 secretion of SEB-stimulated PBMC (ELISA)", "type": "cell-based", "conditions": "SEB 200 ng/mL-stimulated volunteer PBMC, compound 2 μM, 96 h; compared to anti-human PD-1 antibody (5 μg/mL)"}}}
{"smiles": "Cc1cc(CNCCNC(=O)NCCS(C)(=O)=O)c(OCc2cncc(C#N)c2)cc1OCc1cccc(-c2ccc3c(c2)OCCO3)c1C#N", "note": "[Compound I-12]", "values": [{"measurement": "IC50", "setting": "PD-1/PD-L1 binding", "value": 49.1, "unit": "nM"}, {"measurement": "activity at 2 µM", "setting": "[1]", "value": 91.6, "unit": "%"}]}
{"smiles": "Cc1cc(CNCCNC(=O)NC(CO)(CO)CO)c(OCc2cncc(C#N)c2)cc1OCc1cccc(-c2ccc3c(c2)OCCO3)c1C#N", "note": "[Compound I-5]", "values": [{"measurement": "Activity of promoting IL-2 (%)", "setting": "[2]", "value": 53, "unit": "%"}, {"measurement": "IC50", "setting": "PD-1/PD-L1 binding", "value": 36.4, "unit": "nM"}, {"measurement": "activity at 2 µM", "setting": "[1]", "value": 94.6, "unit": "%"}]}
{"smiles": "Cc1cc(CNCCOCCNC(=O)NCCO)c(OCc2cncc(C#N)c2)cc1OCc1cccc(-c2ccc3c(c2)OCCO3)c1C#N", "note": "[Compound I-7]", "values": [{"measurement": "Activity of promoting IL-2 (%)", "setting": "[2]", "value": 58.1, "unit": "%"}, {"measurement": "IC50", "setting": "PD-1/PD-L1 binding", "value": 43.7, "unit": "nM"}, {"measurement": "activity at 2 µM", "setting": "[1]", "value": 94.5, "unit": "%"}]}
{"smiles": "Cc1cc(CNCCOCCNC(=O)NCCN(C)C)c(OCc2cncc(C#N)c2)cc1OCc1cccc(-c2ccc3c(c2)OCCO3)c1C#N", "note": "[Compound I-10]", "values": [{"measurement": "IC50", "setting": "PD-1/PD-L1 binding", "value": 73.3, "unit": "nM"}, {"measurement": "activity at 2 µM", "setting": "[1]", "value": 97.1, "unit": "%"}]}
{"smiles": "Cc1cc(CNCCNC(=O)NCCN(C)C)c(OCc2cncc(C#N)c2)cc1OCc1cccc(-c2ccc3c(c2)OCCO3)c1C#N", "note": "[Compound I-11]", "values": [{"measurement": "Activity of promoting IL-2 (%)", "setting": "[2]", "value": 51.7, "unit": "%"}, {"measurement": "IC50", "setting": "PD-1/PD-L1 binding", "value": 76.1, "unit": "nM"}, {"measurement": "activity at 2 µM", "setting": "[1]", "value": 95.6, "unit": "%"}]}
{"smiles": "C=C(NC(=O)NCCNCc1cc(C)c(OCc2cccc(-c3ccc4c(c3)OCCO4)c2C#N)cc1OCc1cncc(C#N)c1)C(=O)O", "note": "[Compound I-6]", "values": [{"measurement": "Activity of promoting IL-2 (%)", "setting": "[2]", "value": 56.3, "unit": "%"}, {"measurement": "IC50", "setting": "PD-1/PD-L1 binding", "value": 70.2, "unit": "nM"}, {"measurement": "activity at 2 µM", "setting": "[1]", "value": 92.1, "unit": "%"}]}
{"smiles": "Cc1cc(CNCCNC(=O)NCCN2CCOCC2)c(OCc2cncc(C#N)c2)cc1OCc1cccc(-c2ccc3c(c2)OCCO3)c1C#N", "note": "[Compound I-8]", "values": [{"measurement": "IC50", "setting": "PD-1/PD-L1 binding", "value": 61, "unit": "nM"}, {"measurement": "activity at 2 µM", "setting": "[1]", "value": 95.1, "unit": "%"}]}
{"smiles": "Cc1cc(CNCCNC(=O)N[C@@H](CO)C(=O)O)c(OCc2cncc(C#N)c2)cc1OCc1cccc(-c2ccc3c(c2)OCCO3)c1C#N", "note": "[Compound I-13]", "values": [{"measurement": "IC50", "setting": "PD-1/PD-L1 binding", "value": 15.8, "unit": "nM"}, {"measurement": "activity at 2 µM", "setting": "[1]", "value": 91.1, "unit": "%"}]}
{"smiles": "Cc1c(COc2ccc(CNCCNC(=O)NCCO)c(OCc3cccc(C#N)c3)c2)cccc1-c1ccccc1", "note": "[Compound I-2, 1-((2-(2-(3-cyanophenyl)methoxy-4-(2-methyl-(1,1′-diphenyl)-3-yl-methoxy))benzylamino)-2-ethyl)-3-(2-hydroxyethyl)urea]", "values": [{"measurement": "IC50", "setting": "PD-1/PD-L1 binding", "value": 581, "unit": "nM"}, {"measurement": "activity at 2 µM", "setting": "[1]", "value": 100, "unit": "%"}]}
{"smiles": "C=CC(=O)NCCNC(=O)NCCNCc1cc(C)c(OCc2cccc(-c3ccc4c(c3)OCCO4)c2C#N)cc1OCc1cncc(C#N)c1", "note": "[Compound I-14]", "values": [{"measurement": "IC50", "setting": "PD-1/PD-L1 binding", "value": 197, "unit": "nM"}, {"measurement": "activity at 2 µM", "setting": "[1]", "value": 102, "unit": "%"}]}
{"smiles": "Cc1cc(CNCCOCCNC(=O)NCCS(C)(=O)=O)c(OCc2cncc(C#N)c2)cc1OCc1cccc(-c2ccc3c(c2)OCCO3)c1C#N", "note": "[Compound I-9]", "values": [{"measurement": "IC50", "setting": "PD-1/PD-L1 binding", "value": 28.1, "unit": "nM"}, {"measurement": "activity at 2 µM", "setting": "[1]", "value": 99.6, "unit": "%"}]}
{"smiles": "Cc1c(COc2ccc(CNCCNC(=O)NCCN3CCOCC3)c(OCc3cccc(C#N)c3)c2)cccc1-c1ccccc1", "note": "[Compound I-1, 1-((2-(2-(3-cyanophenyl)methoxy-4-(2-methyl-(1,1′-diphenyl)-3-yl-methoxy))benzylamino)-2-ethyl)-3-(2-(N-morpholine)ethyl)urea]", "values": [{"measurement": "IC50", "setting": "PD-1/PD-L1 binding", "value": 1710, "unit": "nM"}, {"measurement": "activity at 2 µM", "setting": "[1]", "value": 102, "unit": "%"}]}
{"smiles": "Cc1cc(CNCCNC(=O)NCCO)c(OCc2cncc(C#N)c2)cc1OCc1cccc(-c2ccc3c(c2)OCCO3)c1C#N", "note": "[Compound I-4]", "values": [{"measurement": "IC50", "setting": "PD-1/PD-L1 binding", "value": 37.5, "unit": "nM"}, {"measurement": "activity at 2 µM", "setting": "[1]", "value": 93.2, "unit": "%"}]}
{"smiles": "Cc1c(COc2ccc(CNCCNC(=O)N[C@@H](COC(C)(C)C)C(=O)OC(C)(C)C)c(OCc3cccc(C#N)c3)c2)cccc1-c1ccccc1", "note": "[Compound I-3, 1-((2-(2-(3-cyanophenyl)methoxy-4-(2-methyl-(1,1′-diphenyl)-3-yl-methoxy))benzylamino)-2-ethyl)-3-(2-tert-butyl-O-tert-butyl-L-serinate-2-yl)urea]", "values": [{"measurement": "IC50", "setting": "PD-1/PD-L1 binding", "value": 3120, "unit": "nM"}, {"measurement": "activity at 2 µM", "setting": "[1]", "value": 99.7, "unit": "%"}]}
